Assay [1] deals with M-NFS-60 mouse myeloid leukemia lymphocytes. The assay is described as follows: CSF-1R-related cell proliferation experiment (Cell Titer Glo). The class given is cell-based. Conditions: 72 h, M-NFS-60 cells, 3 days, CTG. How it is done:
Functional effects of compounds on cell proliferation were evaluated by using Cell Titer Glo (CTG) study in the present invention. M-NFS-60 mouse myeloid leukemia lymphocytes (cat. No. CCBJ078) from National Institutes For Food and Drug Control were cultured in the incubator under conditions of RPMI 1640 (Gibco, cat. No. 11875-119), 10% fetal bovine serum (Gibco, 10099-141), human 10 ng/mL M-CSF macrophage colony-stimulating factor (R&D, cat. No. MVN0915101), 37° C. and 5% CO2. Since ATP is an index for viable cell metabolism, CTG (Promega, #G7573) reagent is a homogeneous detection method for detecting the number of viable cells in the culture by quantifying ATP. Therefore, compound-mediated inhibition for cell proliferation/survival was evaluated by quantifying ATP in cells, and the specific experimental process was as follows: • 1. The cells were plated into a tissue-culture-medium-treated 96-well plate (Costar #3904) with 5,000 cells/well/80 μL fresh culture medium: • 2. 24 hours later, 10 μL culture medium containing testing compound with 10-fold of final concentration was added to each well; • 3. 10 μL of culture medium containing M-CSF with 10-fold of the final concentration was then added to each well: • 4. dosage effect was evaluated by testing the 3-fold serial dilutions of the compound; • 5. after the cells were incubated for 3 days at 37° C. and 5% CO2, the inhibition on cell survival was quantified after 50 μL of CTG was added and the luminescence assay was performed; • 6. the compound concentration leading to half maximal inhibitory (IC50) and the compound concentration leading to absolute half maximal inhibitory (Absolute IC50) were measured by a plate reader (M1000, Tecan) and a four-parameter curve fit in Graphpad Prism 7. D. CSF-1R-Related Cell Proliferation Experiment

Assay [2] concerns the target T1, CSF-1R (Homo sapiens, UniProt P07333).
T1 construct: 3.95 nM of CSF-1R, 500 μM of ATP and 0.2 mg/mL of polypeptide
The assay is described as follows: CSF-1R in vitro biochemical kinase study (ADP-Glo assay). To be noted: 3.95 nM CSF-1R, 500 μM ATP, 30° C. 60 min, read-out: Enzymatic experiment CSF-1R IC50. The protocol: In the present invention, the inhibitory activity of compounds against the CSF-1R activity was determined by using CSF-1R ADP-Glo assay. The compound-mediated inhibition effect was achieved by inhibiting the production of ADP from consumption of ATP, and the activities of compounds were evaluated by using the ADP-Glo kit (Promega, cat. No. V9101). The specific experimental process was as follows: • 1. The kinase reaction performed in the present invention was carried out in a 384-well plate (Perkinelmer, cat. No. 6007290), and 3.95 nM of CSF-1R, 500 μM of ATP and 0.2 mg/mL of polypeptide (Poly (Glu4, Try1), Sigma, cat. No. P0275) were respectively weighed and added to each well: • 2. following reagents were then added to each well to reach the final reaction system: 40 mM Tris, pH 7.5, 20 mM MgCl2, 0.01% Triton X-100, 0.1 mg/mL BSA, 2.5 mM DTT and 0.1% DMSO; • 3. the reaction was conducted at 30° C. for 60 min; • 4. then an equal volume of stop solution (ADP-Glo) was added to the kinase reaction system; • 5. the mixed solution was incubated at 25° C. for 60 min, and the kinase reaction was then terminated; • 6. a two-fold volume of detection reagent was then added to each well; • 7. the mixed solution was incubated at 25° C. for 30 min; • 8. the compound IC50 value was measured by using a plate reader (Tecan, M1000) and a four-parameter curve was generated in Graphpad Prism. B. KIT/PDGFRA In Vitro Biochemical Kinase Study • 1. Preparation of 1-fold kinase buffer and stop solution • 1.1 1-fold kinase buffer: 50 mM HEPES, pH 7.5, 0.0015% Brij-35. • 1.2 stop solution: 100 mM HEPES, pH 7.5, 0.015% Brij-35, 0.2% Coating Reagent #3 50 mM EDTA • 2. Preparation of compound solution • 2.1 Dilution of compound solution • 1) The final concentration of the compound solution was 40 μM. and the concentration of the prepared stock solution was 50 times of the final concentration, i.e., 2 mM. • 2) 80 μL of 100% DMSO was added to the second well of the 96-well plate, then 20 μL of 10 mM compound solution was added, and thereby 2 mM compound solution was prepared, 60 μL of 100% DMSO was added to other wells, 20 μL of compound was taken from the second well, added to the third well and diluted by 4 times. This serial 4-time dilution was conducted in sequence for the total of 10 concentrations. • 2.2 5-fold compound solution transferred to a reaction plate • 1) 10 μL of solution was taken from each well of the above 96-well plate and added to another 96-well plate, and 90 μL of kinase buffer was added. • 2) 5 μL of solution was taken from the above 96-well plate and added to a 384-well reaction plate. • 2.3 Kinase reaction • 1) KIT/PDGFRA kinase was added to the 1-fold kinase buffer solution to obtain a 2.5-fold kinase solution. • 2) FAM-labeled polypeptide and ATP were added to the 1-fold kinase buffer solution to obtain a 2.5-fold substrate solution. • 3) 10 μL of 2.5-fold kinase solution was added to the 384-well reaction plate, which already contained 5 μL of 5-fold compound in 10% DMSO. And the mixed solution was incubated at room temperature for 10 min. • 4) 10 μL of 2.5-fold substrate solution was added to the 384-well reaction plate. • 5) Kinase reaction and termination: the mixed solution was incubated at 28° C. for a certain period of time, and 25 μL of stop solution was added to stop the reaction. • 2.4 Data reading of Caliper EZ Reader II • 2.5 Calculation of percent inhibition and IC50 • 1) Percent conversion data were copied from the Caliper EZ Reader. • 2) Percent conversion was converted into percent inhibition data, wherein, max referred to percent conversion of the DMSO control, and min referred to percent conversion of the negative control without kinase activity. Percent inhibition=(max−conversion)/(max−min)*100. • 3) The IC50 value was fitted with XLFit excel add-in version 5.4.0.8: Fitting formula: Y=Bottom+(Top−Bottom)/(1+(IC50/X)^HillSlope).

[3] abbreviates: absolute half maximal inhibitory concentration, read-out: Cytological experiment CSF-1R Absolute IC50.
Where [4] appears, read: read-out: Cytological experiment CSF1R IC50.

pIC50: −log10 of the molar value. Read-outs that look alike come from different tables or passages of the source.

T1 sequence (P07333 20-972): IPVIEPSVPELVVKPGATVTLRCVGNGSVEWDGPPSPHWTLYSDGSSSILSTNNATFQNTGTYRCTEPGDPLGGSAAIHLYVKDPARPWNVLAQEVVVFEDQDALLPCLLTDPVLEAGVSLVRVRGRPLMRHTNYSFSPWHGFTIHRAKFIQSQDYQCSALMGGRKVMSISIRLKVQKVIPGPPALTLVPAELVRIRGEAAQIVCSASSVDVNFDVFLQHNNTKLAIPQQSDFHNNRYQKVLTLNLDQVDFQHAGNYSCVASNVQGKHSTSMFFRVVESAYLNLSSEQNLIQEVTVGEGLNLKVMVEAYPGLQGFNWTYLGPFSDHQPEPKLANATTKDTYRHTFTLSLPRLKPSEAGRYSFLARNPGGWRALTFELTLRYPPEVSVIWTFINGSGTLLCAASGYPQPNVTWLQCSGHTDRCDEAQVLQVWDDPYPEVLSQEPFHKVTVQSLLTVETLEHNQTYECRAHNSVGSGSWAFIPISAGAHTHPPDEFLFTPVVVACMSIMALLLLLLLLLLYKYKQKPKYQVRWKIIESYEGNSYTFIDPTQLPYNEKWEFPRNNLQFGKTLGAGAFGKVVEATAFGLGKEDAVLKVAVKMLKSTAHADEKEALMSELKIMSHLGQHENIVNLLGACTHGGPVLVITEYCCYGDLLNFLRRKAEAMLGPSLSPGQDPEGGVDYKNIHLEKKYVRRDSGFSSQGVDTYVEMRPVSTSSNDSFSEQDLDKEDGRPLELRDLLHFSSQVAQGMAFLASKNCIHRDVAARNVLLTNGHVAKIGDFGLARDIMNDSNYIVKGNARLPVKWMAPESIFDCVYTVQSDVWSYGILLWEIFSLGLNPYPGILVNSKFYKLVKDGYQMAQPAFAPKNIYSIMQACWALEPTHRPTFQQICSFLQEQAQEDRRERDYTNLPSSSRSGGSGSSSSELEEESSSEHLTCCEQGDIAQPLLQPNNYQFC

On to `CC(C)Nc1ncc(-c2ccc(Cc3c[nH]c4ncccc34)cn2)c(=O)[nH]1` [Example 2, 5-(5-((1H-pyrrolo[2,3-b]pyridin-3-yl)methyl)pyridin-2-yl)-2-(isopropylamino)pyrimidin-4(3H)-one], for which the pIC50 in assay [1] (setting [3]) is 7.40; in assay [1] (setting [4]), 6.67; in assay [2] it was 7.71.

On to `COCCOc1cnc2[nH]cc(Cc3ccc(-c4cnc(NC(C)C)[nH]c4=O)nc3C)c2c1` [Example 3, 2-(isopropylamino)-5-(5-((5-(2-methoxyethoxy)-1H-pyrrolo[2,3-b]pyridin-3-yl)methyl)-6-methylpyridin-2-yl)pyrimidin-4(3H)-one], for which the pIC50 in assay [1] (setting [3]) was 7.32; in assay [1] (setting [4]) it was 7.29; in assay [2], 7.41.

On to `Cc1nc(-c2cnc(NC(C)C)[nH]c2=O)ccc1Cc1c[nH]c2ncc(OCCO)cc12` [Example 4, 5-(5-((5-(2-hydroxyethoxy)-1H-pyrrolo[2,3-b]pyridin-3-yl)methyl)-6-methylpyridin-2-yl)-2-(isopropylamino)pyrimidin-4(3H)-one], for which the negative-log IC50 (pIC50) in assay [1] (setting [3]) was 6.68; in assay [1] (setting [4]) it was 6.63; in assay [2], 7.44.

Consider `Cc1nc(-c2cnc(NC(C)C)[nH]c2=O)ccc1C(=O)c1c[nH]c2ncccc12` [Example 6, 2-(isopropylamino)-5-(6-methyl-5-(1H-pyrrolo[2,3-b]pyridine-3-carbonyl)pyridin-2-yl)pyrimidin-4(3H)-one], for which the pIC50 in assay [2] was 7.06.

Consider `COC(c1ccc(-c2cnc(NC(C)C)n(C)c2=O)nc1C)c1c[nH]c2ncc(Cl)cc12` (stereo not shown) [Example 8, 5-(5-((5-chloro-1H-pyrrolo[2,3-b]pyridin-3-yl)(methoxy)methyl)-6-methylpyridin-2-yl)-2-(isopropylamino)-3-methylpyrimidin-4(3H)-one], for which the pIC50 in assay [2] is 6.48.

Regarding `Cc1nc(-c2cnc(NC(C)C)n(C)c2=O)ccc1C(O)c1c[nH]c2ncc(Cl)cc12` (stereo not shown) [Example 9, 5-(5-((5-chloro-1H-pyrrolo[2,3-b]pyridin-3-yl)(hydroxy)methyl)-6-methylpyridin-2-yl)-2-(isopropylamino)-3-methylpyrimidin-4(3H)-one], the pIC50 in assay [2] was 6.50.

For `Cc1nc(-c2cnc(NC(C)C)n(C)c2=O)ccc1C(=O)c1c[nH]c2ncc(Cl)cc12` [Example 11, 5-(5-(5-chloro-1H-pyrrolo[2,3-b]pyridine-3-carbonyl)-6-methylpyridin-2-yl)-2-(isopropylamino)-3-methylpyrimidin-4(3H)-one], the pIC50 in assay [2] is 7.13.

On to `Cc1nc(-c2cnc(NC(C)C)n(C)c2=O)ccc1C(C)c1c[nH]c2ncc(Cl)cc12` (stereo not shown) [Example 12, 5-(5-(1-(5-chloro-1H-pyrrolo[2,3-b]pyridin-3-yl)ethyl)-6-methylpyridin-2-yl)-2-(isopropylamino)-3-methylpyrimidin-4(3H)-one], for which the pIC50 is 6.53 in assay [1] (setting [3]), 6.50 in assay [1] (setting [4]) and 6.54 in assay [2].

Consider `Cc1nc(-c2cnc3n(c2=O)CCCN3C)ccc1C(=O)c1c[nH]c2ncccc12` [Example 24, 9-methyl-3-(6-methyl-5-(1H-pyrrolo[2,3-b]pyridine-3-carbonyl)pyridin-2-yl)-6,7,8,9-tetrahydro-4H-pyrimido[1,2-a]pyrimidin-4-one], for which the negative logarithm of the IC50 (pIC50) is 6.15 in assay [1] (setting [3]), 6.27 in assay [1] (setting [4]) and 6.77 in assay [2].

On to `Cc1nc(-n2ccc3c(ncn3C(C)C)c2=O)ccc1Cc1c[nH]c2ncc(Cl)cc12` [Example 25, 5-(5-((5-chloro-1H-pyrrolo[2,3-b]pyridin-3-yl)methyl)-6-methylpyridin-2-yl)-1-isopropyl-1,5-dihydro-4H-imidazo[4,5-c]pyridin-4-one], for which the figures for the pIC50 in assay [1] (setting [3]), in assay [1] (setting [4]) and in assay [2] were 6.21, 6.26 and 7.32, respectively.
